# US12716889B2, “Microfluidic-based device for in vivo wound infection model and uses thereof” (The Hong Kong Polytechnic University, priority 2021, dated 2026)
# Tested on: P. aeruginosa (PAO1) biofilm
# Experiment: Viable cell counts (CFU) from biofilm on infected tail wound of Medaka fish in the MicroFish device
# Assay type: in vivo, Pseudomonas aeruginosa
# Conditions: ciprofloxacin monotherapy at 0, 0.05, 1, 5, 10 μg ml^−1 added to fish-microbe co-cultures; FIG. 5E
# Method: After harvesting the tails from euthanized animals after bacterial infection, the tissues were resuspended in 100 μl sterilized 0.9% (w/v) NaCl saline and ground manually by pellet pestle in 1.5-ml-microcentrifuge tubes (JET BIOFIL, China) until homogenization. The homogenized samples were diluted serially in 0.9% NaCl and then spread on centrimide agar (selective only for Pseudomonad growth) (Sigma-Aldrich, Germany). After incubation at 37° C. for 16 hrs, the colonies grown on the plates were enumerated. The CFU ml^−1 was tabulated by colony number×dilution factor[…]. Experiments were performed in triplicates, and the results are shown as mean±S.D.
structure (smiles),measurement,value
O=C(O)c1cn(C2CC2)c2cc(N3CCNCC3)c(F)cc2c1=O [ciprofloxacin],"biofilm viability (viable cell counts, CFU)",lower biofilm viability
